These results are taken from patent US9127004B2, “Nitrogen containing heterocyclic compounds” (Wockhardt Ltd., priority 2011, dated 2015).

Common to all, as to test: MIC of Ceftazidime in presence of test compound, agar dilution (CLSI)
What all share (format): cell-based

One assay relates to E. coli NCTC 13351. Conditions: compound present at 4 mcg/ml, Table 3. How it is done:
(§1) The biological activity of representative compounds according to the invention against various bacterial strains was investigated. In a typical study, overnight grown bacterial cultures were diluted appropriately and inoculated on the agar media containing doubling dilutions of the test compounds. Observation for growth or no growth was performed after 16-20 hours of incubation at 35±2° C. in ambient air. The overall procedure was performed as per Clinical and Laboratory Standards Institute (CLSI) recommendations (Clinical and Laboratory Standards Institute (CLSI), Performance Standards for Antimicrobial Susceptibility Testing, 20th Informational Supplement, M 100-S20, Volume 30, No. 1, 2010).
(§2) The antibacterial activity of representative compounds according to the invention was also investigated in combination with at least one antibacterial agent using the above study protocol and the results are given Table 3 and 4.

A further assay has as its system E. coli 7MP. To be noted: compound present at 4 mcg/ml. How it is done: as §1, §2
The subject of a further assay is E. coli M50. To be noted: compound present at 4 mcg/ml. How it is done: as §1, §2
In a further assay the test system is A. baumannii 13304. Conditions: A. baumannii 13304, Class D ESBL; compound present at 4 mcg/ml; Table 4. How it is done:
as §1, §2

A further assay deals with E. coli W 13351. To be noted: E. coli W 13351, Class A ESBL; compound present at 4 mcg/ml; Table 4. As for the experimental part:
as §1, §2

In a further assay the test system is E. coli B 89. Conditions: E. coli B 89, Class C ESBL; compound present at 4 mcg/ml; Table 4. How it is done:
as §1, §2

Another assay deals with E. coli W 13352. Conditions: E. coli W 13352, Class A ESBL; compound present at 4 mcg/ml; Table 4. As for the experimental part:
as §1, §2

For the next assay, the system named is K. pneumoniae H 522. Conditions: K. pneumoniae H 522, KPC ESBL; compound present at 4 mcg/ml; Table 4. As for the experimental part: as §1, §2
A further assay concerns K. pneumoniae H 521. Conditions: K. pneumoniae H 521, KPC ESBL; compound present at 4 mcg/ml; Table 4. As for the experimental part: as §1, §2
A further assay has as its system E. coli W 13353. Conditions: E. coli W 13353, Class A ESBL; compound present at 4 mcg/ml; Table 4. As for the experimental part: as §1, §2
Another assay deals with A. baumannii 13301. To be noted: A. baumannii 13301, Class D ESBL; compound present at 4 mcg/ml; Table 4. How it is done:
as §1, §2

The subject of the next assay is K. pneumoniae H 520. Conditions: K. pneumoniae H 520, KPC ESBL; compound present at 4 mcg/ml; Table 4. As for the experimental part:
as §1, §2

As for `CCc1nnc([C@H]2CC[C@@H]3CN2C(=O)N3OS(=O)(=O)[O-])o1.[Na+]` (relative stereo) [Example 2, Sodium salt of trans-6-(sulphooxy)-2-(5-ethyl-[1,3,4]-oxadiazol-2-yl)-7-oxo-1,6-diazabicyclo[3.2.1]-octane], the “Activity of Ceftazidime (MIC) in presence of compound” value (“Activity of Ceftazidime (MIC)” below) turned out to be 16 mg/L in the assay with E. coli NCTC 13351; 32 mg/L with E. coli 7MP (Table 3); 16 mg/L with E. coli M50 (E. coli M50, Table 3).

As to `O=C1N2C[C@@H](CC[C@@H]2c2nnc(C(F)(F)F)o2)N1OS(=O)(=O)[O-].[Na+]` (relative stereo) [Example 3, Sodium salt of trans-6-(sulphooxy)-2-(5-trifluoromethyl-[1,3,4]-oxadiazol-2-yl)-7-oxo-1,6-diazabicyclo[3.2.1]-octane], the “Activity of Ceftazidime (MIC)” value in the assay on E. coli NCTC 13351 amounted to 16 mg/L; with E. coli 7MP (Table 3) it was 32 mg/L; in the assay with E. coli M50 (E. coli M50, Table 3), 16 mg/L.

As for `NC(=O)c1nnc([C@H]2CC[C@@H]3CN2C(=O)N3OS(=O)(=O)O)o1.[Na]` (relative stereo) [Example 4, Sodium salt of trans-6-(sulphooxy)-2-(5-carboxamido-[1,3,4]-oxadiazol-2-yl)-7-oxo-1,6-diazabicyclo[3.2.1]-octane], the “Activity of Ceftazidime (MIC)” value came to 8 mg/L in the assay on A. baumannii 13304; 0.5 mg/L with E. coli W 13351; 1 mg/L in the assay with E. coli B 89; 1 mg/L with E. coli W 13352; 1 mg/L in the assay with K. pneumoniae H 522; 0.5 mg/L with E. coli NCTC 13351. Moreover, the “Activity of Ceftazidime (MIC)” value with E. coli 7MP (Class C ESBL, Table 4) was 2 mg/L; in the assay on E. coli 7MP (Table 3), 2 mg/L; with K. pneumoniae H 521, 1 mg/L; in the assay on E. coli W 13353, 0.25 mg/L; with A. baumannii 13301 it was >32 mg/L; in the assay with E. coli M50 (E. coli M 50, Class C ESBL, Table 4), 1 mg/L. In addition, the “Activity of Ceftazidime (MIC)” value was 1 mg/L in the assay on E. coli M50 (E. coli M50, Table 3) and 1 mg/L with K. pneumoniae H 520.

`O=C1N2C[C@@H](CC[C@@H]2c2nnc(-c3ccon3)o2)N1OS(=O)(=O)[O-].[Na+]` (relative stereo) [Example 5, Sodium salt of trans-6-(sulphooxy)-2-(5-(isooxazol-3-yl)-[1,3,4]-oxadiazol-2-yl)-7-oxo-1,6-diazabicyclo[3.2.1]-octane]: the “Activity of Ceftazidime (MIC)” value amounted to 4 mg/L in the assay on E. coli NCTC 13351; 16 mg/L with E. coli 7MP (Table 3); 4 mg/L in the assay on E. coli M50 (E. coli M50, Table 3).

For `O=C1N2C[C@@H](CC[C@@H]2c2nnc(-c3ccco3)o2)N1OS(=O)(=O)[O-].[Na+]` (relative stereo) [Example 6, Sodium salt of trans-6-(sulphooxy)-2-(5-(furan-2-yl)-[1,3,4]-oxadiazol-2-yl)-7-oxo-1,6-diazabicyclo[3.2.1]-octane], the “Activity of Ceftazidime (MIC)” value in the assay on E. coli NCTC 13351 came to 32 mg/L; with E. coli 7MP (Table 3), 32 mg/L; with E. coli M50 (E. coli M50, Table 3), 16 mg/L.

Regarding `O=C1N2C[C@@H](CC[C@@H]2c2nnc(-c3ccccc3)o2)N1OS(=O)(=O)O.[Na]` (relative stereo) [Example 7, Sodium salt of trans-6-(sulphooxy)-2-(5-phenyl-[1,3,4]-oxadiazol-2-yl)-7-oxo-1,6-diazabicyclo[3.2.1]-octane], the “Activity of Ceftazidime (MIC)” value with E. coli NCTC 13351 came out at 16 mg/L; with E. coli 7MP (Table 3), 32 mg/L; with E. coli M50 (E. coli M50, Table 3) it was 16 mg/L.

Turning to `O=C1N2C[C@@H](CC[C@@H]2c2nnc(-c3ccccn3)o2)N1OS(=O)(=O)[O-].[Na+]` (relative stereo) [Example 8, Sodium salt of trans-6-(sulphooxy)-2-(5-(pyridin-2-yl)-[1,3,4]-oxadiazol-2-yl)-7-oxo-1,6-diazabicyclo[3.2.1]-octane], the “Activity of Ceftazidime (MIC)” value with E. coli NCTC 13351 came out at 16 mg/L; in the assay with E. coli 7MP (Table 3), 32 mg/L; with E. coli M50 (E. coli M50, Table 3), 16 mg/L.

For the molecule `NC(=O)c1cccc(-c2nnc([C@H]3CC[C@@H]4CN3C(=O)N4OS(=O)(=O)O)o2)n1.[Na]` (relative stereo) [Example 9, Sodium salt of trans-6-(sulphooxy)-2-(5-(6-carboxamido-pyridin-2-yl)-[1,3,4]-oxadiazol-2-yl)-7-oxo-1,6-diazabicyclo[3.2.1]-octane], the “Activity of Ceftazidime (MIC)” value in the assay on E. coli NCTC 13351 was 2 mg/L; in the assay with E. coli 7MP (Table 3), >32 mg/L; in the assay with E. coli M50 (E. coli M50, Table 3), 8 mg/L.

As to `O=C1N2C[C@@H](CC[C@@H]2c2nnc(-c3cn4c(n3)COCC4)o2)N1OS(=O)(=O)O.[Na]` (relative stereo) [Example 10, Sodium salt of trans-6-(sulphooxy)-2-(5-(5,6-dihydro-8H-imidazo[2,1-c][1,4]-oxazin-2-yl)-[1,3,4]-oxadiazol-2-yl)-7-oxo-1,6-diazabicyclo[3.2.1]-octane], the “Activity of Ceftazidime (MIC)” value with E. coli NCTC 13351 is 16 mg/L; in the assay with E. coli 7MP (Table 3), 32 mg/L; in the assay on E. coli M50 (E. coli M50, Table 3) it was 16 mg/L.

Regarding `O=C1N2C[C@@H](CC[C@@H]2c2nnc(CN3CCOCC3)o2)N1OS(=O)(=O)O.[Na]` (relative stereo) [Example 11, Sodium salt of trans-6-(sulphooxy)-2-(5-(morpholino-4-methyl)-[1,3,4]-oxadiazol-2-yl)-7-oxo-1,6-diazabicyclo[3.2.1]-octane], the “Activity of Ceftazidime (MIC)” value with E. coli NCTC 13351 is 1 mg/L; with E. coli 7MP (Table 3), 32 mg/L; in the assay with E. coli M50 (E. coli M50, Table 3), 2 mg/L.

Consider `O=C(c1nnc([C@H]2CC[C@@H]3CN2C(=O)N3OS(=O)(=O)[O-])o1)N1CCOCC1.[Na+]` (relative stereo) [Example 12, Sodium salt of trans-sulfuric acid mono-[2-(5-(morpholin-4-yl-carbonyl)-[1,3,4]-oxadiazol-2-yl)-7-oxo-1,6-diazabicyclo[3.2.1]-octan-6-yl]ester], for which the “Activity of Ceftazidime (MIC)” value in the assay with E. coli NCTC 13351 came out at 2 mg/L; in the assay with E. coli 7MP (Table 3), 16 mg/L; in the assay on E. coli M50 (E. coli M50, Table 3) it was 8 mg/L.
